Data set [1] is classed as in vitro ADME, human. On the procedure:
(§1) The term "skin flux" intends the rate of transfer of drug across skin as measured by the method of Merritt and Cooper (J Controlled Release (1984) 1:161). The units of flux are preferably μg/cm^2 /hr.
The following examples further illustrate the invention and its unique characteristics. These examples are not intended to limit the invention in any manner. In the following examples in vitro steady state transdermal flux across human cadaver skin was determined using the method of Merritt and Cooper, supra. Unless otherwise indicated percentages and proportions are by volume.
Formulations of progesterone at varying concentrations were made by mixing progesterone with the indicated ingredients and applied to cadaver skin. The meanings of the abbreviations that appear in the table are: Gly=glycerine; GDO=glycerol dioleate; ML=methyl laurate; OA=oleic acid; GMO=glycerol monooleate.
Additional progesterone systems were formulated and tested as in Example 1. Abbreviations are as in Example 1. Progesterone was present at saturation in system 1 and below saturation in systems 2-6.
Formulations of the hydrophilic drugs oxybutynin HCl and mecamylamine HCl were prepared and tested as in Examples 1 and 2. The formulations of Table 3 containing oxybutynin HCl at 40 mg/ml were saturated and the formulations of Table 4 containing 80 mg/ml of mecamylamine HCl were saturated. All other systems were at drug concentrations below saturation.
[…]. The matrix containing 30% norethindrone acetate was saturated; all others were subsaturated.

Data set [2] is described as follows: cumulative permeation at 24 hr through skin in vitro. It counts as in vitro ADME, human. The note with it: for Cumulative Permeation: 24 hr. As to the method:
as §1
The following examples further illustrate the invention and its unique characteristics. These examples are not intended to limit the invention in any manner. In the following examples in vitro steady state transdermal flux across human cadaver skin was determined using the method of Merritt and Cooper, supra. Unless otherwise indicated percentages and proportions are by volume. […]
[…]. The matrix containing 8% estradiol was saturated; the others were subsaturated.
The matrix containing 8% estradiol was saturated; the others were subsaturated.

SMILES strings stand for the structures. Counter-ions that a name gives are not always drawn. Like-named read-outs stand apart in the source and are kept apart here.

Turning to `CCN(CC)CC#CCOC(=O)C(O)(c1ccccc1)C1CCCCC1` (stereo not shown) [Oxybutyrin, oxybutynin HCl], the Flux in data set [1] (Table 3 system 1, 5 mg/ml, 40/53/5/2 EtOH/H2O/Gly/GMO, N=3) came out at 5.6 ± 0.9 μg/cm^2 /hr; in data set [1] (Table 3 system 1, 10 mg/ml, 40/53/5/2 EtOH/H2O/Gly/GMO, N=6), 13.3 ± 2.6 μg/cm^2 /hr; in data set [1] (Table 3 system 1, 20 mg/ml, 40/53/5/2 EtOH/H2O/Gly/GMO, N=12) it was 16.9 ± 5.2 μg/cm^2 /hr; in data set [1] (Table 3 system 1, 40 mg/ml (saturated), 40/53/5/2 EtOH/H2O/Gly/GMO, N=4), 29.1 ± 11.2 μg/cm^2 /hr; in data set [1] (Table 3 system 2, 5 mg/ml, 40/54/5/1 EtOH/H2O/Gly/GMO, N=3), 8.0 ± 1.4 μg/cm^2 /hr; in data set [1] (Table 3 system 2, 10 mg/ml, 40/54/5/1 EtOH/H2O/Gly/GMO, N=6), 10.1 ± 3.3 μg/cm^2 /hr. The Flux in data set [1] (Table 3 system 2, 20 mg/ml, 40/54/5/1 EtOH/H2O/Gly/GMO, N=12) is listed as 17.5 ± 5.1 μg/cm^2 /hr; in data set [1] (Table 3 system 2, 40 mg/ml (saturated), 40/54/5/1 EtOH/H2O/Gly/GMO, N=5), 38.8 ± 18.9 μg/cm^2 /hr; in data set [1] (Table 3 system 3, 5 mg/ml, 30/63/5/2 EtOH/H2O/Gly/GMO, N=3), 2.2 ± 0.2 μg/cm^2 /hr; in data set [1] (Table 3 system 3, 10 mg/ml, 30/63/5/2 EtOH/H2O/Gly/GMO, N=9), 8.3 ± 3.8 μg/cm^2 /hr; in data set [1] (Table 3 system 3, 20 mg/ml, 30/63/5/2 EtOH/H2O/Gly/GMO, N=12), 14.8 ± 6.1 μg/cm^2 /hr; in data set [1] (Table 3 system 3, 40 mg/ml (saturated), 30/63/5/2 EtOH/H2O/Gly/GMO, N=6), 23.9 ± 10.0 μg/cm^2 /hr. The Flux is on record as 1.7 ± 0.3 μg/cm^2 /hr in data set [1] (Table 3 system 4, 5 mg/ml, 30/64/5/1 EtOH/H2O/Gly/GMO, N=3); 5.4 ± 2.5 μg/cm^2 /hr in data set [1] (Table 3 system 4, 10 mg/ml, 30/64/5/1 EtOH/H2O/Gly/GMO, N=6); 13.6 ± 5.2 μg/cm^2 /hr in data set [1] (Table 3 system 4, 20 mg/ml, 30/64/5/1 EtOH/H2O/Gly/GMO, N=15); 27.5 ± 13.1 μg/cm^2 /hr in data set [1] (Table 3 system 4, 40 mg/ml (saturated), 30/64/5/1 EtOH/H2O/Gly/GMO, N=6).
With `C[C@]12CC[C@@H]3c4ccc(O)cc4CC[C@H]3[C@@H]1CC[C@@H]2O` [estradiol], the “Cumulative Permeation” value in data set [2] (Table 7, 1% estradiol, acrylic adhesive matrix with 20% sorbitan monooleate, S.D. 1.40) came out at 11.36 μg/cm^2; in data set [2] (Table 7, 2% estradiol, acrylic adhesive matrix with 20% sorbitan monooleate, S.D. 6.24), 28.31 μg/cm^2; in data set [2] (Table 7, 3% estradiol, acrylic adhesive matrix with 20% sorbitan monooleate, S.D. 6.64), 40.88 μg/cm^2; in data set [2] (Table 7, 4% estradiol, acrylic adhesive matrix with 20% sorbitan monooleate, S.D. 4.46), 44.94 μg/cm^2; in data set [2] (Table 7, 6% estradiol, acrylic adhesive matrix with 20% sorbitan monooleate, S.D. 3.03), 22.56 μg/cm^2; in data set [2] (Table 7, 8% estradiol (saturated), acrylic adhesive matrix with 20% sorbitan monooleate, S.D. 5.25), 12.93 μg/cm^2. The “Cumulative Permeation” value in data set [2] (Table 8, 1% estradiol, acrylic adhesive matrix without permeation enhancer, S.D. 1.84) is reported as 9.33 μg/cm^2; in data set [2] (Table 8, 2% estradiol, acrylic adhesive matrix without permeation enhancer, S.D. 1.42), 16.55 μg/cm^2; in data set [2] (Table 8, 3% estradiol, acrylic adhesive matrix without permeation enhancer, S.D. 2.16), 21.21 μg/cm^2; in data set [2] (Table 8, 4% estradiol, acrylic adhesive matrix without permeation enhancer, S.D. 0.64), 16.11 μg/cm^2; in data set [2] (Table 8, 6% estradiol, acrylic adhesive matrix without permeation enhancer, S.D. 0.27), 18.42 μg/cm^2; in data set [2] (Table 8, 8% estradiol (saturated), acrylic adhesive matrix without permeation enhancer, S.D. 3.93), 9.20 μg/cm^2. The “maximum permeation versus estradiol concentration” value in data set [2] (matrices with sorbitan monolaurate, ointments EtOH/H2O/Gly/GMO/ML 20/60/5/7.5/7.5) is “maximum permeation was observed at estradiol concentrations below saturation”.
As for `CC(C)NCC(O)COc1cccc2[nH]ccc12` (stereo not shown) [pindolol free base, pindolol], the “dependence of flux on drug concentration” value in data set [1] (ointment and solid matrix systems) is recorded as “classic Fickian dependence of flux on drug concentration”.
As to `CC(=O)[C@H]1CC[C@H]2[C@@H]3CCC4=CC(=O)CC[C@]4(C)[C@H]3CC[C@]12C` [progesterone], the Flux in data set [1] (Table 1 system 1, 75.0 mg/ml (saturated), 60/22.5/10/2.5/2.5/2.5 EtOH/H2O/Gly/GDO/ML/OA, N=8) amounted to 2.12 ± 0.47 μg/cm^2 /hr; in data set [1] (Table 1 system 2, 50 mg/ml, 60/22.5/10/2.5/2.5/2.5 EtOH/H2O/Gly/GDO/ML/OA, N=18) it was 4.51 ± 1.37 μg/cm^2 /hr; in data set [1] (Table 1 system 3, 25 mg/ml, 60/22.5/10/2.5/2.5/2.5 EtOH/H2O/Gly/GDO/ML/OA, N=3) it was 5.52 ± 1.38 μg/cm^2 /hr; in data set [1] (Table 1 system 4, 75 mg/ml (saturated), 60/22.5/10/2.5/2.5/2.5 EtOH/H2O/Gly/GMO/ML/OA, N=8), 3.35 ± 2.18 μg/cm^2 /hr; in data set [1] (Table 1 system 5, 50 mg/ml, 60/22.5/10/2.5/2.5/2.5 EtOH/H2O/Gly/GMO/ML/OA, N=18), 7.63 ± 3.00 μg/cm^2 /hr; in data set [1] (Table 1 system 6, 37.5 mg/ml, 60/22.5/10/2.5/2.5/2.5 EtOH/H2O/Gly/GMO/ML/OA, N=6), 8.18 ± 0.90 μg/cm^2 /hr. For the same molecule, the Flux is reported as 6.37 ± 1.88 μg/cm^2 /hr in data set [1] (Table 1 system 7, 25 mg/ml, 60/22.5/10/2.5/2.5/2.5 EtOH/H2O/Gly/GMO/ML/OA, N=18); 1.84 ± 0.33 μg/cm^2 /hr in data set [1] (Table 1 system 8, 10 mg/ml, 60/22.5/10/2.5/2.5/2.5 EtOH/H2O/Gly/GMO/ML/OA, N=3); 6.01 ± 1.73 μg/cm^2 /hr in data set [1] (Table 2 system 1, 50 mg/ml (saturated), 60/22.5/10/2.5/2.5/2.5 EtOH/H2O/Gly/GDO/ML/OA, N=12); 13.03 ± 3.35 μg/cm^2 /hr in data set [1] (Table 2 system 2, 30 mg/ml, 60/28/10/1/1 EtOH/H2O/Gly/GMO/ML, N=3); 12.98 ± 2.06 μg/cm^2 /hr in data set [1] (Table 2 system 3, 25 mg/ml, 60/28/10/1/1 EtOH/H2O/Gly/GMO/ML, N=3); 15.89 ± 6.81 μg/cm^2 /hr in data set [1] (Table 2 system 4, 20 mg/ml, 60/28/10/1/1 EtOH/H2O/Gly/GMO/ML, N=9). The Flux in data set [1] (Table 2 system 5, 15 mg/ml, 60/28/10/1/1 EtOH/H2O/Gly/GMO/ML, N=12) was 13.13 ± 1.87 μg/cm^2 /hr; in data set [1] (Table 2 system 6, 10 mg/ml, 60/28/10/1/1/1 EtOH/H2O/Gly/GMO/ML, N=5) it was 11.13 ± 1.98 μg/cm^2 /hr. In addition, the “flux at subsaturated concentrations versus at saturation” value in data set [1] (Table 1 systems, except 8) is on record as “significantly greater”. For the same molecule, the “fluxes at concentrations below saturation versus at saturation” value in data set [1] (Table 2 systems) is “significantly greater than at saturation”.

(Values after patent publication US5164190A, “Subsaturated transdermal drug delivery device exhibiting enhanced drug flux” (Theratech, Inc., priority 1990, dated 1992).)
